Measured values published in patent US20090012088A1 (priority 2005, published 2009).
“Also recorded” adds a separate entry of the source. Like-named read-outs stand apart in the source and are kept apart here.

Key:
PARG [1] = assay: Table 2: small molecules tested for PARG inhibition activity (relative to PIP-1); format: biochemical
U-937 cells = assay: Protection against H2O2 treatment of U-937 cells (cell survival); format: cell-based; conditions: FIG. 13
Procedure: We have made multiple derivatives of PIP-1; these compounds are shown below in Table 2 and in FIG. 11 and labeled Structures 1-39. The neuroprotective effects of structures 1-26 were tested in the cellular assay and compared to the neuroprotective effect of PIP-1 (FIG. 13).
PIP-1 and structures 1-26 were screened for protection against H2O2 treatment of U-937 cells FIG. 13.

[2] = system: NAD^+ depletion in HL-60 cell lysate; assay: Whole cell assay screen: NAD+ depletion in H2O2-activated HL-60 cell lysate; format: cell-based
Procedure: To identify a non-toxic, non-DNA intercalating, cell permeable small molecule inhibitor of PARG, a high-throughput screen is devised. Given the severe challenges in isolating enough of the PAR substrate for an in vitro screen directly for PARG inhibition, we develop a primary screen that utilizes cell lysates and, in particular, mammalian cell lysates. In this assay, HL-60 cells are treated with H2O2 to damage their DNA (which activates PARP-1) and then lyse the cells. In individual wells of a 384-well plate, this cell lysate is incubated with 22,000 different small molecules from an in-house compound collection; these compounds are either purchased (from ChemBridge Corp.) or collected from various sources at the University of Illinois. (28) NAD^+ levels are measured using a fluorescent method based on the chemical conversion of NAD^+ to a fluorescent product (29, 30) (FIG. 14A). The amount of NAD^+ consumed in each well is monitored, and any compounds that prevent NAD^+ consumption are classified “hits” in this primary screen.
Library screen: 12.5 μL of Lysing PARP buffer (50 mM Tris, 10 mM MgCl2, pH 8.0, 1% Triton X-100) containing 100 μM NAD^+ is added to each well of a 384-well plate. Library compounds at 10 mM in DMSO are transferred using a 384-well pin transfer device that delivers 0.1 μL. HL-60 cells are spun down at 200 g for 5 min. and resuspended in Lysing PARP buffer to a concentration of 8×10^6 cells/mL. 10 μL of a 30% H2O2 solution is added per mL of cells. 12.5 μL of the activated cell lysate is added to the plates. The plates are incubated for 60 min. at 37° C. The concentration of NAD^+ is then determined using a fluorescent assay^1. 10 μL of a 2 M KOH solution and 10 μL of a 20% acetophenone solution (in ethanol) is added to each well. The plate is then incubated at 4° C. for 10 min. 45 μL of a 88% formic acid solution was added to each well. The plate was then incubated for 5 min. in a 110° C. oven. Once the plate cools, the fluorescent intensity of each well is determined on a Criterion Analyst AD (Molecular Devices) with an excitation of 360 nm and an emission of 445 nm.

[3] = system: neuronally differentiated PC-12 cells; assay: Protection from rotenone induced toxicity in neuronally differentiated PC-12 cells; format: cell-based
Procedure: Rotenone is a complex I poison and is widely used in cell culture and animal models of PD. (20, 31, 32) To determine if PIP-1 protects cells from rotenone insult, PC-12 cells are neuronally differentiated (with neuronal growth factor β for 10 days) and then treated with 10 μM rotenone and a range of PIP-1 concentrations. After 72 hours, cell death is assessed using propidium iodide staining as measured by flow cytometry. […] To determine the features on PIP-1 that are important for PARG inhibition and cell protection, three derivatives are constructed that lacked key functionality (see FIG. 19 compounds labeled 3, 4 and 5).
Cell culture conditions: HL-60 and SK-N-SH cells are grown in RPMI 1640 media supplemented with 10% FBS and PC-12 cells are grown in RPMI 1640 media supplemented with 10% HS and 5% FBS. All cell lines are incubated at 37° C. in a 5% CO2, 95% air atmosphere. HL-60 cells are split every two to three days as needed and SK-N-SH cells are split when they reach approximately 90% confluency at a 1:6 ratio. SK-N-SH cells are differentiated by adding media containing 10 μM retinoic acid (in DMSO). Media is replaced every other day and cells are differentiated for a total of 12 days. PC-12 cells are differentiated by adding media containing 25 ng/mL Neuronal Growth Factro β. Media is replaced every other day and cells are differentiated for a total of 10 days. Differentiation is observed by microscopy.
Protection of Rotenone and MPP^+ induced toxicity in PC-12 and SK-N-SH cells: SK-N-SH and PC-12 cells are neuronally differentiated as described above. 10 μM rotenone, 10 μM MPP^+ and various concentrations of PIP-1 or its derivatives are added to the cells and incubated for 72 h. The cells are then washed in PBS and the viability is determined by adding propidium iodide to 1 μg/mL and measuring the fluorescent intensity of each cell by flow cytometry.

PARG [4] = target: PARG (Bos taurus, UniProt O02776); assay: Inhibition of PARG activity in vitro (quantitation of free ADP-ribose with benzamidine, fluorescence); format: biochemical; design: purchased Biomol
Sequence of PARG (Bos taurus, UniProt O02776) (O02776 whole entry): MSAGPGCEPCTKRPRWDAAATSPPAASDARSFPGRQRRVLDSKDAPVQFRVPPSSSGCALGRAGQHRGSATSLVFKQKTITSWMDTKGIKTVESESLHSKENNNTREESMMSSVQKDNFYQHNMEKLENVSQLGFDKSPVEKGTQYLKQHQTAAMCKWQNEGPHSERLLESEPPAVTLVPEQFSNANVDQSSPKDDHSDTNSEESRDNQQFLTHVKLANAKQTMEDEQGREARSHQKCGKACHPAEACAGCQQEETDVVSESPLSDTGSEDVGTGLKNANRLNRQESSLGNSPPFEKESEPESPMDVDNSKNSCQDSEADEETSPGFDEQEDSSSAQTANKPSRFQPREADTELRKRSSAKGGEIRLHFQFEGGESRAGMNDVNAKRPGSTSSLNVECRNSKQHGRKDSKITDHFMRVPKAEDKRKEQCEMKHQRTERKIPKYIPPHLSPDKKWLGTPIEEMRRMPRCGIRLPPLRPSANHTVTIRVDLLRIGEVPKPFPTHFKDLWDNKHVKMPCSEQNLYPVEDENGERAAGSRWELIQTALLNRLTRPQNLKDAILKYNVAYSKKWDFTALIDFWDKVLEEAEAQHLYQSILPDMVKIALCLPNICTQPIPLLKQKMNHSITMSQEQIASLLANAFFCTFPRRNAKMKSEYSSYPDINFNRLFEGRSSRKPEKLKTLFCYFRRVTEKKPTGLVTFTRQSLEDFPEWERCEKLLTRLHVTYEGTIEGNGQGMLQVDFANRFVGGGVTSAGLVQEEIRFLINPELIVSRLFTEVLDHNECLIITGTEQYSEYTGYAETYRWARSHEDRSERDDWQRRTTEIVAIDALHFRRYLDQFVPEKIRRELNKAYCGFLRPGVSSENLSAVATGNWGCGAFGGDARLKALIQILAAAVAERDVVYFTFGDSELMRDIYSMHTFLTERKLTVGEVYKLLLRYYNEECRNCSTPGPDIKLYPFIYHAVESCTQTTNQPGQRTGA
Procedure: PARG assay: Production and purification of PAR. PARP-1 (20 units) is added to 900 μL of PARP assay buffer containing 1 mM NAD^+ and 22.5 μg activated DNA. This reaction was run at 37° C. for 30 min and stopped by the addition of 300 μL of cold 100% trichloroacetic acid. The proteins thus precipitated are collected by centrifugation at 18,000 g for 30 min at 4° C. After removal of the supernatant, 1 mL of 1 M NaOH and 100 mM EDTA are added to the pellet and incubated for 2 h at 37° C. to cleave the PAR from the PARP protein acceptor. Then 9 mL of PAR buffer A (250 mM ammonium acetate, 6 M guanidinium HCl, 10 mM EDTA, pH 9.0) is added to the PAR and applied to a PROSEP-PB (Millipore) phenyl boronate column that is pre-equilibrated with PAR buffer A. The flowthrough is then reapplied to the column to ensure that all PAR is bound. The column is then washed with 25 mL of PAR buffer A, followed by 10 mL of PAR buffer B (1 M ammonium acetate and 1 mM EDTA, pH 9.0). The bound PAR is eluted with 4 mL of water collected in 1-mL fractions. Fractions containing PAR are pooled and concentrated. The concentration, measured as monomer, is determined by measuring the absorbance at 258 nm. PAR has an extinction coefficient of 13,500 cm^−1 at 258 nm.
Inhibition of PARG Activity: To determine the PARG IC50 values of the compounds, 39 μL of a 25.6 μM solution of PAR in PARG assay (50 mM KCl, 50 mM KH2PO4, pH 7.2) buffer and 1 μL of the compounds at varying concentrations (in PARG assay buffer) are added into the wells of a 384-well plate. The reaction is initiated by the addition of 10 μL of PARG (Biomol) at a concentration of 1 ng/ml (in PARG assay buffer), bringing the final concentration to […] and 20 μM PAR with varying concentrations of compounds in a total volume of 50 μL. The plate is incubated for 20 min at room temperature. The amount of free ADP-ribose hemiacetals is determined by the addition of 5 μL of an aqueous 8.5M KOH solution and 5 μL of an aqueous 850 μM benzamidine solution to each well. The plate is then incubated for 10 min in an oven set at 110° C. The plate is allowed to cool and then read on a Criterion Analyst AD with an excitation of 360 nm and an emission of 445 nm.

Row | Molecule | Activity (PARG [1]) | Protection of U-937 cells treated with H2O2 (activity compared to PIP-1) (U-937 cells) | other results
1 | CC(=O)Nc1c(N2CCOCC2)cnn(-c2ccccc2)c1=O [Structure 22] | moderate | moderate activity | 
2 | CCN(CC)c1cnn(-c2ccccc2)c(=O)c1NC(C)=O [Structure 25] | moderate | moderate activity | 
3 | CC(=O)N(C(C)=O)c1c(Cl)cnn(-c2ccccc2)c1=O [Structure 10] | low |  | 
4 | CN(C)c1cnn(C)c(=O)c1N [compound 6, 4-Amino-5-dimethylamino-2-methyl-2H-pyridazin-3-one] |  |  | Inhibition of NAD+ depletion in the whole cell assay [2]: do not inhibit NAD^+ depletion; Protection of rotenone-treated neuronally differentiated PC-12 cells (in words) [3]: inactive; Protection of rotenone-treated neuronally differentiated PC-12 cells (in words) ([3]; listed as analogue 6): do not protect; PARG inhibition in vitro (in words) (PARG [4]): inactive; PARG inhibition in vitro (in words) (PARG [4]; listed as analogue 6): do not inhibit NAD^+ depletion or PARG activity
5 | CC(=O)Nc1c(N(C)C)cnn(-c2ccccc2)c1=O [Structure 24] | moderate | moderate activity | 
6 | Nc1c(N2CCCC2)cnn(-c2ccccc2)c1=O [Structure 17] | moderate | moderate activity | 
7 | CC(=O)Nc1c(N2CCCC2)cnn(-c2ccccc2)c1=O [Structure 18] | moderate | moderate activity | 
8 | CC(=O)Nc1c(N2CCCCC2)cnn(-c2ccccc2)c1=O [Structure 20] | good | activity similar or better than PIP-1 | 
9 | CCCN(CCC)c1cnn(-c2ccccc2)c(=O)c1N [Structure 12] | good | activity similar or better than PIP-1 | 
10 | CC(=O)Nc1c(Cl)cnn(-c2ccccc2)c1=O [Structure 9] | low |  | 
11 | CCCCCCNc1c(Cl)cnn(-c2ccccc2)c1=O [Structure 7] | low |  | 
12 | Nc1c(N2CCCCC2)cnn(-c2ccccc2)c1=O [Structure 19] | good | activity similar or better than PIP-1 | 
13 | CCCCN(CC)c1cnn(-c2ccccc2)c(=O)c1NC(C)=O [Structure 16] | low | low or no activity | 
14 | O=c1c(Cl)c(O)cnn1-c1ccccc1 [entry 3, reference compound] | low | low or no activity | 
15 | CCCCN(CCCC)c1cnn(-c2ccccc2)c(=O)c1N [Structure 13] | good | activity similar or better than PIP-1 | 
16 | CCN(CC)c1cnn(-c2ccccc2)c(=O)c1N [Structure 11] | good | activity similar or better than PIP-1 | 
17 | CCCCN(CCCC)c1cnn(-c2ccccc2)c(=O)c1NC(C)=O [Structure 14] | low | low or no activity | 
18 | Nc1c(Cl)cnn(-c2ccccc2)c1=O [Structure 8] | low |  | 
19 | CCCCN(CC)c1cnn(-c2ccccc2)c(=O)c1N [Structure 15] | moderate | moderate activity | 
20 | Nc1c(N2CCOCC2)cnn(-c2ccccc2)c1=O [Structure 21] | good | activity similar or better than PIP-1 | 
21 | CN(C)c1cnn(C)c(=O)c1N [Structure 39] | low |  | 
22 | 4-Amino-5-dimethylamino-2-phenyl-2H-pyridazin-3-one [PIP-1] | moderate | low or no activity | 
23 | CN(C)c1ccn(-c2ccccc2)c(=O)c1N [compound 4, 3-Amino-4-dimethylamino-1-phenyl-1H-pyridin-2-one] |  |  | Inhibition of NAD+ depletion in the whole cell assay [2]: inhibit NAD^+ depletion; Protection of rotenone-treated neuronally differentiated PC-12 cells (in words) ([3]; listed as lactam 4): virtually identical PARG inhibition and cell protection properties as PIP-1; also recorded: protect; PARG inhibition in vitro (in words) (PARG [4]; listed as lactam 4): virtually identical PARG inhibition and cell protection properties as PIP-1; also recorded: inhibit PARG activity in vitro
24 | CCCN(CCC)c1cnn(-c2ccccc2)c(=O)c1NC(C)=O [Structure 26] | low | low or no activity | 
